According to ChEMBL document CHEMBL3044935, “Synthesis and in vitro microbiological evaluation of novel 2,4-diaryl-3-azabicyclo[3.3.1]nonan-9,5-spiro-1,2,4-triazolidine-3-thiones” (2012):
In brackets after ≈: the same amount, converted by molar mass.

Columns and labels:
Assay type in all cases: functional
Nannizzia gypsea = test: Antimicrobial activity against Microsporum gypseum after 72 to 96 hr by two-fold serial dilution method
Rhizopus = test: Antimicrobial activity against Rhizopus after 72 to 96 hr by two-fold serial dilution method
Mucor = test: Antimicrobial activity against Mucor after 72 to 96 hr by two-fold serial dilution method
Aspergillus flavus = test: Antimicrobial activity against Aspergillus flavus after 72 to 96 hr by two-fold serial dilution method
Klebsiella pneumoniae = test: Antimicrobial activity against Klebsiella pneumoniae after 24 hr by two-fold serial dilution method
Escherichia coli = test: Antimicrobial activity against Escherichia coli after 24 hr by two-fold serial dilution method
Shigella flexneri = test: Antimicrobial activity against Shigella flexneri after 24 hr by two-fold serial dilution method
Vibrio cholerae = test: Antimicrobial activity against Vibrio cholerae after 24 hr by two-fold serial dilution method
Salmonella typhi = test: Antimicrobial activity against Salmonella enterica subsp. enterica serovar Typhi after 24 hr by two-fold serial dilution method
Streptococcus = test: Antimicrobial activity against beta-hemolytic Streptococcus after 24 hr by two-fold serial dilution method
Staphylococcus aureus = test: Antimicrobial activity against Staphylococcus aureus after 24 hr by two-fold serial dilution method

SMILES | MIC (Nannizzia gypsea) [µg/mL] | MIC (Rhizopus) [µg/mL] | MIC (Mucor) [µg/mL] | MIC (Aspergillus flavus) [µg/mL] | MIC (Klebsiella pneumoniae) [µg/mL] | MIC (Escherichia coli) [µg/mL] | MIC (Shigella flexneri) [µg/mL] | MIC (Vibrio cholerae) [µg/mL] | MIC (Salmonella typhi) [µg/mL] | MIC (Streptococcus) [µg/mL] | MIC (Staphylococcus aureus) [µg/mL]
COc1ccc(C2NC(c3ccc(OC)cc3)C3CCCC2C32NNC(=S)N2)cc1 (stereo not drawn) | 50 (≈ 118 µM) | 25 (≈ 58.9 µM) | 50 (≈ 118 µM) | 100 (≈ 236 µM) | 12.5 (≈ 29.4 µM) | 100 (≈ 236 µM) | 25 (≈ 58.9 µM) | 50 (≈ 118 µM) | 200 (≈ 471 µM) | 100 (≈ 236 µM) | 100 (≈ 236 µM)
S=C1NNC2(N1)C1CCCC2C(c2ccccc2)NC1c1ccccc1 (stereo not drawn) | 200 (≈ 549 µM) | 200 (≈ 549 µM) | 200 (≈ 549 µM) | 100 (≈ 274 µM) | 100 (≈ 274 µM) | 200 (≈ 549 µM) | 100 (≈ 274 µM) | 50 (≈ 137 µM) | 50 (≈ 137 µM) | 100 (≈ 274 µM) | 100 (≈ 274 µM)
Fc1ccc(C2NC(c3ccc(F)cc3)C3CCCC2C32NNC(=S)N2)cc1 (stereo not drawn) | 6.25 (≈ 15.6 µM) | 12.5 (≈ 31.2 µM) | 100 (≈ 250 µM) | 6.25 (≈ 15.6 µM) | 6.25 (≈ 15.6 µM) | 100 (≈ 250 µM) | 50 (≈ 125 µM) | 12.5 (≈ 31.2 µM) | 100 (≈ 250 µM) | 12.5 (≈ 31.2 µM) | 6.25 (≈ 15.6 µM)
S=C1NNC2(N1)C1CCCC2C(c2ccc(Cl)cc2)NC1c1ccc(Cl)cc1 (stereo not drawn) | 12.5 (≈ 28.8 µM) | 25 (≈ 57.7 µM) | 12.5 (≈ 28.8 µM) | 12.5 (≈ 28.8 µM) | 100 (≈ 231 µM) | 12.5 (≈ 28.8 µM) | 100 (≈ 231 µM) | 25 (≈ 57.7 µM) | 12.5 (≈ 28.8 µM) | 50 (≈ 115 µM) | 12.5 (≈ 28.8 µM)
S=C1NNC2(N1)C1CCCC2C(c2ccc(Br)cc2)NC1c1ccc(Br)cc1 (stereo not drawn) | 25 (≈ 47.9 µM) | 12.5 (≈ 23.9 µM) | 12.5 (≈ 23.9 µM) | 6.25 (≈ 12 µM) | 100 (≈ 191 µM) | 100 (≈ 191 µM) | 50 (≈ 95.7 µM) | 25 (≈ 47.9 µM) | 12.5 (≈ 23.9 µM) | 6.25 (≈ 12 µM) | 12.5 (≈ 23.9 µM)
O=[N+]([O-])c1ccc(C2NC(c3ccc([N+](=O)[O-])cc3)C3CCCC2C32NNC(=S)N2)cc1 (stereo not drawn) | 12.5 (≈ 27.5 µM) | 12.5 (≈ 27.5 µM) | 25 (≈ 55 µM) | 25 (≈ 55 µM) | 50 (≈ 110 µM) | 100 (≈ 220 µM) | 50 (≈ 110 µM) | 25 (≈ 55 µM) | 100 (≈ 220 µM) | 12.5 (≈ 27.5 µM) | 12.5 (≈ 27.5 µM)
Cc1ccc(C2NC(c3ccc(C)cc3)C3CCCC2C32NNC(=S)N2)cc1 (stereo not drawn) | 50 (≈ 127 µM) | 50 (≈ 127 µM) | 100 (≈ 255 µM) | 200 (≈ 509 µM) | 200 (≈ 509 µM) | 200 (≈ 509 µM) | 200 (≈ 509 µM) | 50 (≈ 127 µM) | 50 (≈ 127 µM) | 50 (≈ 127 µM) | 50 (≈ 127 µM)
O=C(O)c1cn(C2CC2)c2cc(N3CCNCC3)c(F)cc2c1=O [CIPROFLOXACIN] | – | – | – | – | 12.5 (≈ 37.7 µM) | 25 (≈ 75.4 µM) | 25 (≈ 75.4 µM) | 25 (≈ 75.4 µM) | 25 (≈ 75.4 µM) | 12.5 (≈ 37.7 µM) | 12.5 (≈ 37.7 µM)
OC(Cn1cncn1)(Cn1cncn1)c1ccc(F)cc1F [FLUCONAZOLE] | 12.5 (≈ 40.8 µM) | 25 (≈ 81.6 µM) | 12.5 (≈ 40.8 µM) | 25 (≈ 81.6 µM) | – | – | – | – | – | – | –
